Measured values taken from publication PMC11053447, “Human ABC and SLC Transporters: The Culprit Responsible for Unspecific PSMA-617 Uptake?” (Pharmaceuticals, 2024).

How the values were obtained:
Conditions in all cases: 20 min
human OAT4 = target: T1, human OAT4 (Homo sapiens, UniProt Q9NSA0); test: SLC transporter substrate assay, HEK293-OAT4-LV vs control HEK293-Mock-LV cells
T1 sequence (Q9NSA0 1-550): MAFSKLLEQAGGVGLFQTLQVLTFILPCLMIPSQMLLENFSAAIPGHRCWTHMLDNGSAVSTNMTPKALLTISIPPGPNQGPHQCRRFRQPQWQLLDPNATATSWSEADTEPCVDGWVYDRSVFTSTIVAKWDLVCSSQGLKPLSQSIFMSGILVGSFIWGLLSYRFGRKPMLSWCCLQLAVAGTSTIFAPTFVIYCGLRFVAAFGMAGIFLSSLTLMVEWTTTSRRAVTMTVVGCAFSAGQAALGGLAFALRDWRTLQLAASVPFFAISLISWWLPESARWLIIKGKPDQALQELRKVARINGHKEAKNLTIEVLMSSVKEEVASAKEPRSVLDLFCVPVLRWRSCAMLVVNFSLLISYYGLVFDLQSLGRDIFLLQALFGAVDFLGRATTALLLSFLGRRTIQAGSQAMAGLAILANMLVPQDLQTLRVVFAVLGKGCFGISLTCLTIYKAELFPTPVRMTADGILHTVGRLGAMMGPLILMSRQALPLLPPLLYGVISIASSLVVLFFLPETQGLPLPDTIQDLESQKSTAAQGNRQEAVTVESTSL

human OAT1 = target: T2, human OAT1 (Homo sapiens, UniProt Q4U2R8); test: SLC transporter substrate assay, HEK293-OAT1-LV vs control HEK293-Mock-B-LV cells
T2 sequence (Q4U2R8 1-563): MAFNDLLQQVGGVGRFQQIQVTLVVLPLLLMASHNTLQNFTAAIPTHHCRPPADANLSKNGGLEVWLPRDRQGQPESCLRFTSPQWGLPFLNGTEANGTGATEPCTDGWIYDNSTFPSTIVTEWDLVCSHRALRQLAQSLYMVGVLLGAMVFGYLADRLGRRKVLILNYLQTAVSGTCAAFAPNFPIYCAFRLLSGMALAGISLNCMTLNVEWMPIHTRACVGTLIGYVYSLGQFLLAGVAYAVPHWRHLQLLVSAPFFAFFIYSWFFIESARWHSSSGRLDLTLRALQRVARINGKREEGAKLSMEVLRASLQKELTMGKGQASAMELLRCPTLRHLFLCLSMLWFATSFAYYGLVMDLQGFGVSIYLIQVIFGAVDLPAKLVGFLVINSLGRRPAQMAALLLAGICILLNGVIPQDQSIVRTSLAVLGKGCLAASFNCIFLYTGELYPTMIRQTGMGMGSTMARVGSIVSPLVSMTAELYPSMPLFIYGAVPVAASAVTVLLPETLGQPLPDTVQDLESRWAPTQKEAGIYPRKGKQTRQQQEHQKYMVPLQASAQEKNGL

human OAT3 = target: T3, human OAT3 (Homo sapiens, UniProt Q8TCC7); test: SLC transporter substrate assay, HEK293-OAT3-LV vs control HEK293-Mock-LV cells
T3 sequence (Q8TCC7 1-542): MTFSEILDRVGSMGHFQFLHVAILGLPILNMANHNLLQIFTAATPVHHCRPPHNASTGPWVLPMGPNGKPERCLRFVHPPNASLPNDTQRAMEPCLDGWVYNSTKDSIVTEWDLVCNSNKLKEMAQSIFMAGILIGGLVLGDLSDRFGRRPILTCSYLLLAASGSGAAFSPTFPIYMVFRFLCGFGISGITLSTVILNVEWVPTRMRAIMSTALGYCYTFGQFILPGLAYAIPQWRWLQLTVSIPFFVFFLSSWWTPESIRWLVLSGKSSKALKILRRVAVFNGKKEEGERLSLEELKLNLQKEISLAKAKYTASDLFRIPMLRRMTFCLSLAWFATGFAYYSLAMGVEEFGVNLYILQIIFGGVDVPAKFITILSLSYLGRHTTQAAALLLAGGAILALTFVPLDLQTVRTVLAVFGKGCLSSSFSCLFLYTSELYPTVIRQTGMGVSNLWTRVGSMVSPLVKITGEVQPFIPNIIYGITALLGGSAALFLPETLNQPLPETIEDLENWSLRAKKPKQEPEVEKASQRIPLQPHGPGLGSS

[1] = 0.03 µM nominal + Benzbromarone 300 µM
[2] = 0.30 µM nominal + Benzbromarone 300 µM
[3] = 0.03 µM nominal + Probenecid 300 µM
[4] = 0.30 µM nominal + Probenecid 300 µM
[5] = absence and presence of probenecid
[6] = 0.03 µM nominal + Probenecid 500 µM
[7] = 0.30 µM nominal + Probenecid 500 µM

## [3H]C(c1ccc2ccccc2c1)C([3H])(NC(=O)C1CCC(CNC(=O)CN2CCN(CC(=O)[O-])CCN(CC(=O)[O-])CCN(CC(=O)[O-])CC2)CC1)C(=O)NCCCCC(NC(=O)NC(CCC(=O)O)C(=O)O)C(=O)O.[Lu+3] (stereo not drawn) [([α,β-^3H]Nal)Lu-PSMA-617]
Human OAT4; [1]
  Accumulation in OAT4 transporter expressing cells: 0.03 ± 0.01 pmol/mg protein
  Accumulation in control cells: 0.02 ± 0.00 pmol/mg protein
  Accumulation, active transport: 0.01 ± 0.01 pmol/mg protein
  Fold accumulation: 1.47
Human OAT4; 0.03 µM nominal, no inhibitor
  Accumulation in OAT4 transporter expressing cells: 0.04 ± 0.01 pmol/mg protein
  Accumulation in control cells: 0.03 ± 0.00 pmol/mg protein
  Accumulation, active transport: 0.01 ± 0.01 pmol/mg protein
  Fold accumulation: 1.22
Human OAT4; [2]
  Accumulation in OAT4 transporter expressing cells: 0.40 ± 0.12 pmol/mg protein
  Accumulation in control cells: 0.49 ± 0.14 pmol/mg protein
  Accumulation, active transport: -0.09 ± 0.18 pmol/mg protein
  Fold accumulation: 0.81
Human OAT4; 0.30 µM nominal, no inhibitor
  Accumulation in OAT4 transporter expressing cells: 0.35 ± 0.11 pmol/mg protein
  Accumulation in control cells: 0.22 ± 0.05 pmol/mg protein
  Accumulation, active transport: 0.13 ± 0.12 pmol/mg protein
  Fold accumulation: 1.58
Human OAT4; 0.3 µM
  Max. transporter-specific fold accumulation, without inhibitor: 1.58
Human OAT4; absence and presence of benzbromarone
  Uptake via transporter (OAT4): not taken up
Human OAT4; Benzbromarone, 0.3 µM
  Max. transporter-specific fold accumulation, with inhibitor: 0.81
Human OAT1; [3]
  Accumulation in OAT1 transporter expressing cells: 0.04 ± 0.00 pmol/mg protein
  Accumulation in control cells: 0.03 ± 0.00 pmol/mg protein
  Accumulation, active transport: 0.00 ± 0.00 pmol/mg protein
  Fold accumulation: 1.10
Human OAT1; 0.03 µM nominal, no inhibitor
  Accumulation in OAT1 transporter expressing cells: 0.06 ± 0.01 pmol/mg protein
  Accumulation in control cells: 0.05 ± 0.01 pmol/mg protein
  Accumulation, active transport: 0.01 ± 0.01 pmol/mg protein
  Fold accumulation: 1.17
Human OAT1; [4]
  Accumulation in OAT1 transporter expressing cells: 0.62 ± 0.13 pmol/mg protein
  Accumulation in control cells: 0.44 ± 0.10 pmol/mg protein
  Accumulation, active transport: 0.18 ± 0.16 pmol/mg protein
  Fold accumulation: 1.42
Human OAT1; 0.30 µM nominal, no inhibitor
  Accumulation in OAT1 transporter expressing cells: 0.36 ± 0.02 pmol/mg protein
  Accumulation in control cells: 0.34 ± 0.06 pmol/mg protein
  Accumulation, active transport: 0.01 ± 0.06 pmol/mg protein
  Fold accumulation: 1.04
Human OAT1; 0.03 µM
  Max. transporter-specific fold accumulation, without inhibitor: 1.17
Human OAT1; [5]
  Uptake via transporter (OAT1): not taken up
Human OAT1; Probenecid, 0.03 µM
  Max. transporter-specific fold accumulation, with inhibitor: 1.10
Human OAT3; [6]
  Accumulation in OAT3 transporter expressing cells: 0.05 ± 0.01 pmol/mg protein
  Accumulation in control cells: 0.03 ± 0.01 pmol/mg protein
  Accumulation, active transport: 0.02 ± 0.01 pmol/mg protein
  Fold accumulation: 1.56
Human OAT3; 0.03 µM nominal, no inhibitor
  Accumulation in OAT3 transporter expressing cells: 0.07 ± 0.01 pmol/mg protein
  Accumulation in control cells: 0.03 ± 0.00 pmol/mg protein
  Accumulation, active transport: 0.03 ± 0.01 pmol/mg protein
  Fold accumulation: 1.96
Human OAT3; [7]
  Accumulation in OAT3 transporter expressing cells: 0.74 ± 0.15 pmol/mg protein
  Accumulation in control cells: 0.29 ± 0.07 pmol/mg protein
  Accumulation, active transport: 0.45 ± 0.17 pmol/mg protein
  Fold accumulation: 2.52
Human OAT3; 0.30 µM nominal, no inhibitor
  Accumulation in OAT3 transporter expressing cells: 0.60 ± 0.13 pmol/mg protein
  Accumulation in control cells: 0.29 ± 0.06 pmol/mg protein
  Accumulation, active transport: 0.31 ± 0.14 pmol/mg protein
  Fold accumulation: 2.09
Human OAT3; 0.3 µM
  Max. transporter-specific fold accumulation, without inhibitor: 2.09
Human OAT3; [5]
  Uptake via transporter (OAT3): not taken up
Human OAT3; Probenecid, 0.3 µM
  Max. transporter-specific fold accumulation, with inhibitor: 2.52
